Earlier results, collected in patent US20210120811A1, “AQUEOUS CAPSULE SUSPENSION CONCENTRATES CONTAINING A HERBICIDAL SAFENER AND A PESTICIDAL ACTIVE SUBSTANCE” (priority 2018, published 2021).

SMILES: CC1(C)CON(Cc2ccc(Cl)cc2Cl)C1=O [DCPMI, 2-[(2,4-dichlorophenyl)methyl]-4,4′-dimethyl-3-isoxazolidinone]
- water solubility: 39.5 ppm
